This passage reports IC50 results from patent US20230295212A1 (ROME Therapeutics, Inc., priority 2022, published 2023).

Each structure is given as a SMILES string. pIC50: −log10 of the molar value. Where a name gives a salt, the structure may show the parent alone. Some results are limits rather than exact numbers.

The term pIC50 denotes the negative decadic logarithm of the IC50, by convention in mol/L.

In assay [1] the target is T1, human DNA polymerase γ (Homo sapiens, UniProt P54098).
T1 construct: purchased Gentaur
T1 sequence (P54098 1-1239): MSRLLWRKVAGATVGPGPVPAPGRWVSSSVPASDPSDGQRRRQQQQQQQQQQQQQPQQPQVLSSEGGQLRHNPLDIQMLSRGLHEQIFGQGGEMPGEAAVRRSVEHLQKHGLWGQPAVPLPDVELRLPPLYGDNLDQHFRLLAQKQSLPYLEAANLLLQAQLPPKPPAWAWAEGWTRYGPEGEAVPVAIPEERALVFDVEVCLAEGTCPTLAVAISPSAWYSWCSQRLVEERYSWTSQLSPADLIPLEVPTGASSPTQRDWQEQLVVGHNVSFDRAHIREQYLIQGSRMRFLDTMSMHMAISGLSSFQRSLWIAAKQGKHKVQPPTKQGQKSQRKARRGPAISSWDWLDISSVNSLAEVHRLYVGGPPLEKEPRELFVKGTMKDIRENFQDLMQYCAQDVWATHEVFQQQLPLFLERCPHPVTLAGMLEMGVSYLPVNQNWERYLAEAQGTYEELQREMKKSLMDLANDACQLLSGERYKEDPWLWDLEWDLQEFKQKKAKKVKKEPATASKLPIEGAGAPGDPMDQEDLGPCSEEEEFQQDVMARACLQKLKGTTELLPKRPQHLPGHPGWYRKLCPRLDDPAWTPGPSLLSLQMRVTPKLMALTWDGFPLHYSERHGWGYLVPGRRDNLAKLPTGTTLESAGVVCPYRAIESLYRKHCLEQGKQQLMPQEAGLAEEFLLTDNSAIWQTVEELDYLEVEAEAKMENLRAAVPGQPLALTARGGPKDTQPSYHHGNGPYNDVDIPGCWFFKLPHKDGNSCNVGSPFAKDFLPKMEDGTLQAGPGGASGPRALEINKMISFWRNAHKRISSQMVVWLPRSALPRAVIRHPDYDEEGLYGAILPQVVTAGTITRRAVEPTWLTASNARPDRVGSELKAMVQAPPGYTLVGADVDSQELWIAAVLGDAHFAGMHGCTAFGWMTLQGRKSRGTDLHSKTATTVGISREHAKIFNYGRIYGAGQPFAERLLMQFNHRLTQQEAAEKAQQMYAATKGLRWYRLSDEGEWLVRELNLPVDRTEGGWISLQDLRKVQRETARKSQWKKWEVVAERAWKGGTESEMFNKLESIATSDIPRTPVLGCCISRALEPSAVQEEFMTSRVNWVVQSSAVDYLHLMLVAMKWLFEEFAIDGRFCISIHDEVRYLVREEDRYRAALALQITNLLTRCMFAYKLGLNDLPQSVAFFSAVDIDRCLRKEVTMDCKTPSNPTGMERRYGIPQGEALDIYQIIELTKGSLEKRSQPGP
As to the kind of experiment: Homogeneous time-resolved fluorescence human DNA polymerase γ assay. Particulars: triphosphates, room temperature 30 minutes. The assay is classed as biochemical. As for the experimental part: Exemplary compounds were tested for ability to inhibit human DNA polymerase γ using a homogeneous time-resolved fluorescence (HTRF) assay. Off-target inhibition of DNA polymerase γ by NRTIs can result in undesired mitochondrial toxicity. Assay procedures and results are described below.
The human DNA polymerase γ homogeneous time-resolved fluorescence (HTRF) assay was performed with recombinant human DNA polymerase γ protein (Gentaur) in a 384-well format. Test compound was serially diluted in water and further diluted in the assay buffer (28 mM Tris-HCl, 14 mM NaCl, 0.56 mM MgCl2, 0.011% Triton X-100, 0.11 mg/ml BSA, 1.1 mM DTT, pH 8.1). The serially diluted compound was mixed with polymerase γ, 10 nM of pre-annealed template/biotin-primer pair (synthesized at Geneway Biotechnology), 100 nM of Fluorescein-12-dCTP fluorescent probe (PerkinElmer), and 10 μM dGTP/dATP/dTTP (ThermoFisher Scientific) in the assay buffer. The template/biotin-primer sequences were as follows:
After incubating at room temperature for 30 minutes, the detection reagent (5 mM EDTA with streptavidin-terbium cryptate, Cisbio Bioassay) in the PPI buffer (Cisbio Bioassay) was added, and the mixture was incubated at room temperature for 60 minutes. At the end of the incubation, fluorescence was read at ex/em=337/485 nm and ex/em=337/520 nm on an Envision 2104 plate reader (PerkinElmer). The fluorescence ratio at 520/485 nm was used for the calculation. […] The IC50 was calculated by fitting the compound dose inhibition curve with a 4-parameter non-linear regression equation.

Assay [2] has as its target T2, HERV-K reverse transcriptase (Homo sapiens, UniProt V9H0F6).
T2 construct: fused on or other part: C-terminal 8xHis tag
As to the kind of experiment: Homogeneous time-resolved fluorescence (HTRF) HERV-K RT assay. The class given is biochemical. To be noted: triphosphate analogs, HERV-K enzyme 16 ng/well, 25° C. 30 minutes. As for the experimental part:
Exemplary triphosphate analogs were tested for ability to inhibit HERV-K reverse transcriptase using a homogeneous time-resolved fluorescence (HTRF) assay. Assay procedures and results are described below.
The HERV-K reverse transcriptase homogeneous time-resolved fluorescence (HTRF) assay was performed in a 384-well format with HERV-K reverse transcriptase (2-596)-8His protein. Baculoviruses were created using Bac-to-Bac technology (Invitrogen). pFastflac donor plasmids containing HERV-K reverse transcriptase sequence (NCBI GenBank number AAC63291.1, J. Virology (1999) Vol. 73, No. 3, pp. 2365-2375) were transformed into DH10 Bac cells following the manufacturer's instructions. Recombinant bacmids were then isolated clonally and transfected into SF9 cells with lipofectin. HERV-K reverse transcriptase was expressed in the SF9 insect cells and then purified using immobilized metal affinity chromatography (IMAC) followed by size-exclusion chromatography (SEC).
Test compound was serially diluted in DMSO and further diluted in the assay buffer (50 mM Tris-HCl, 50 mM KCl, 10 mM MgCl2, 10 mM DTT, pH 8.1) to achieve a final DMSO concentration of 1%. The serially diluted compound was mixed with 16 ng/well of HERV-K enzyme, 5 nM of pre-annealed template/biotin-primer pair (synthesized at Geneway Biotechnology), 10 nM of Fluorescein-12-dCTP fluorescent probe (PerkinElmer), and 1 mM dGTP, dATP, and DTTP (ThermoFisher). The template/biotin-primer sequences were:
After incubating at 25° C. for 30 minutes, the detection reagent 20 mM EDTA with streptavidin-terbium cryptate (Cisbio Bioassay) in the PPI buffer (Cisbio Bioassay) was added, and the mixture was incubated at 25° C. for 60 minutes. At the end of the incubation, fluorescence was read at ex/em=337/485 nm and ex/em=337/520 nm on an Envision 2104 plate reader (PerkinElmer). The fluorescence ratio at 520/485 nm was used for the calculation. […] IC50 values were calculated by fitting the compound dose inhibition curve with a 4-parameter non-linear regression equation.

T2 sequence (V9H0F6 entry or part of it): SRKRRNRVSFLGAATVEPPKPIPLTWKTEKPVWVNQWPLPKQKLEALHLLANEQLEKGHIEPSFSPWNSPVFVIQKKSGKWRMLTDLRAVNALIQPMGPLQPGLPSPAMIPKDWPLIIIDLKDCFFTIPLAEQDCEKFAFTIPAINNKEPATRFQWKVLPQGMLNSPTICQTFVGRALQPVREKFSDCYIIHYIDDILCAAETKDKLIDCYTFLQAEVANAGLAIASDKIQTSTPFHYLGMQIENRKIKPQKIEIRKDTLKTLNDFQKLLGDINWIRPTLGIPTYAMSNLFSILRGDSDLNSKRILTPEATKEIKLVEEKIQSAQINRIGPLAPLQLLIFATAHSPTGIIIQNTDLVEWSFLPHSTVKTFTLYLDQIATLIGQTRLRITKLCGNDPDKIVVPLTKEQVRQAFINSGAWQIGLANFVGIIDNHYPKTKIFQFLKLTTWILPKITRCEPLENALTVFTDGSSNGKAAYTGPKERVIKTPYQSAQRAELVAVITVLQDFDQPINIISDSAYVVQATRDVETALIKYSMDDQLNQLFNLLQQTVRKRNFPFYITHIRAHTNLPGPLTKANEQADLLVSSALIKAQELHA

In the case of `Nc1nc(=O)n([C@@H]2O[C@](CCl)(COP(=O)(O)OP(=O)(O)OP(=O)(O)O)[C@@H](O)[C@@H]2F)cc1F` [Compound 67-TP], the figures for the pIC50 in assay [1] and in assay [2] were 3.52 to 3.70 and below 5.00, respectively.

On to `C#C[C@]1(COP(=O)(O)OP(=O)(O)OP(=O)(O)O)O[C@@H](n2ccc(N)nc2=O)[C@@H](F)[C@@H]1O` [Compound 35-TP], for which the pIC50 was 3.52 to 3.70 in assay [1] and 7.89 in assay [2].

In the case of `CC[C@]1(COP(=O)(O)OP(=O)(O)OP(=O)(O)O)O[C@@H](n2ccc(N)nc2=O)C[C@@H]1O` [44-TP], the pIC50 in assay [1] was below 3.52; in assay [2] it was below 5.00.

In the case of `C=C[C@]1(COP(=O)(O)OP(=O)(O)OP(=O)(O)O)O[C@@H](n2ccc(N)nc2=O)C[C@@H]1O` [Compound 43-TP], the pIC50 in assay [1] is 3.52 to 3.70; in assay [2], 5.40.

Consider `Nc1ccn([C@@H]2O[C@](CCl)(COP(=O)(O)OP(=O)(O)OP(=O)(O)O)[C@@H](O)[C@@H]2F)c(=O)n1` [Compound 40-TP], for which the negative-log IC50 (pIC50) is 3.52 to 3.70 in assay [1] and below 5.00 in assay [2].

As for `Nc1nc(=O)n([C@H]2C[C@H](O)[C@@](CCl)(COP(=O)(O)OP(=O)(O)OP(=O)(O)O)O2)cc1F` [Compound 14-TP, ((2R,3S,5R)-5-(4-amino-5-fluoro-2-oxopyrimidin-1(2H)-yl)-2-(chloromethyl)-3-hydroxytetrahydrofuran-2-yl)methyl tetrahydrogen triphosphate TEA Salt], the pIC50 in assay [1] is 4.00 to 4.30; in assay [2], below 5.00.

In the case of `Nc1ccn([C@H]2C[C@H](O)[C@@](CCl)(COP(=O)(O)OP(=O)(O)OP(=O)(O)O)O2)c(=O)n1` [Compound 2-TP], the pIC50 in assay [1] is at least 4.30; in assay [2], 4.77.
